How the values were obtained:
Format in all cases: functional, organism-based
[1] = test system: Leishmania donovani; experiment: Antimicrobial activity against Leishmania donovani
[2] = test system: Plasmodium falciparum; experiment: Antimicrobial activity against Plasmodium falciparum
[3] = test system: Entamoeba histolytica; experiment: Antimicrobial activity against Entamoeba histolytica

IC50 [2] [µM] | IC50 [3] [µM] | Structure (SMILES) | IC50 [1] [µM]
– | – | CCCC[C@H]1C(=O)O[C@@H]2O[C@@]3(CC)CC[C@H]4[C@H](C)CC[C@@H]1[C@@]24OO3 | 36
– | – | CCCC[C@H]1C(=O)O[C@@H]2O[C@@]3(CCCCc4ccccc4)CC[C@H]4[C@H](C)CC[C@@H]1[C@@]24OO3 | 5
– | – | C[C@@H]1CC[C@H]2[C@@H](CCCc3ccc(Cl)cc3)C(O)O[C@@H]3O[C@@]4(C)CC[C@@H]1[C@]32OO4 (stereo partly drawn) | 5
– | – | C[C@@H]1CC[C@H]2[C@@H](CCCc3cccc(F)c3)C(=O)O[C@@H]3O[C@@]4(C)CC[C@@H]1[C@]32OO4 | 4
– | – | CCC[C@@]12CC[C@H]3[C@H](C)CC[C@H]4CC(=O)O[C@H](O1)[C@]43OO2 | 41
– | – | C[C@@H]1CC[C@H]2[C@@H](CCCc3ccc(C(F)(F)F)cc3)C(O)O[C@@H]3O[C@@]4(C)CC[C@@H]1[C@]32OO4 (stereo partly drawn) | 3
– | – | CC[C@H]1C(=O)O[C@@H]2O[C@@]3(C)CC[C@H]4[C@H](C)CC[C@@H]1[C@@]24OO3 | 61
– | – | CCCN(CCC)c1c([N+](=O)[O-])cc(S(=O)(=O)Nc2cc(Cl)cc(Cl)c2)cc1[N+](=O)[O-] | 4
– | – | C[C@@H]1CC[C@H]2[C@@H](CCCc3ccc(C(F)(F)F)cc3)CO[C@@H]3O[C@@]4(C)CC[C@@H]1[C@]32OO4 | 2
– | – | C[C@@H]1CC[C@H]2[C@@H](CCCc3cccc(Cl)c3)CO[C@@H]3O[C@@]4(C)CC[C@@H]1[C@]32OO4 | 4
– | – | C[C@@H]1CC[C@H]2[C@H](CCCc3ccccc3)C(=O)O[C@@H]3O[C@@]4(C)CC[C@@H]1[C@]32OO4 | 45
– | – | C[C@@H]1CC[C@H]2[C@@H](CCCC(F)(F)F)C(=O)O[C@@H]3O[C@@]4(C)CC[C@@H]1[C@]32OO4 | 79
– | – | CCCC[C@@]12CC[C@H]3[C@H](C)CC[C@H]4CC(=O)O[C@H](O1)[C@]43OO2 | 258
– | – | CCOC(=O)CC[C@@]12CC[C@H]3[C@H](C)CC[C@H]4CC(=O)O[C@H](O1)[C@]43OO2 | 31
– | – | O=c1ncnc2n([C@H]3O[C@@H](CO)[C@H](O)[C@@H]3O)[nH]cc1-2 [ALLOPURINOL RIBOSIDE] | 4
200 | 7 | O=P(O)(O)C(Nc1cccc(-c2ccccc2)c1)P(=O)(O)O | –
– | – | CCC[C@H]1C(=O)O[C@@H]2O[C@@]3(C)CC[C@H]4[C@H](C)CC[C@@H]1[C@@]24OO3 | 17
200 | 200 | O=P(O)(O)CC(c1cccnc1)P(=O)(O)O (stereo not drawn) | –
5 | 200 | CCCCCNC(P(=O)(O)O)P(=O)(O)O [(PENTYLAMINO)METHYLENEDIPHOSPHONIC ACID] | –
200 | 200 | O=P(O)(O)C(NC1CCCCCC1)P(=O)(O)O [INCADRONIC ACID] | –
5 | 200 | Cc1csc(NC(P(=O)(O)O)P(=O)(O)O)n1 | –
– | – | Nc1ncnc2c1ncn2[C@@H]1O[C@H](C[C@@H](N)CC[C@H](N)C(=O)O)[C@@H](O)[C@H]1O [SINEFUNGIN] | 1
200 | 200 | O=P(O)(O)C(N1CCSCC1)P(=O)(O)O [THIOMORPHOLINOMETHYLENEDIPHOSPHONIC ACID] | –
– | – | C[C@@H]1CC[C@H]2CC(=O)O[C@@H]3O[C@@]4(C)CC[C@@H]1[C@@]23OO4 | 242
– | – | COc1ccc(CCC[C@H]2C(=O)O[C@@H]3O[C@@]4(C)CC[C@H]5[C@H](C)CC[C@@H]2[C@@]35OO4)cc1 | 12
– | – | CSc1ccc(CCC[C@H]2C(=O)O[C@@H]3O[C@@]4(C)CC[C@H]5[C@H](C)CC[C@@H]2[C@@]35OO4)cc1 | 1
– | – | NCCC[C@](N)(C(=O)O)C(F)F [EFLORNITHINE, (S)-] | 225

IC50 [2] [µM] | IC50 [3] [µM] | Structure (SMILES) | IC50 [1] [µM]
– | – | C=CC[C@H]1C(=O)O[C@@H]2O[C@@]3(C)CC[C@H]4[C@H](C)CC[C@@H]1[C@@]24OO3 | 18
200 | 200 | Cc1cccnc1NC(P(=O)(O)O)P(=O)(O)O | –
– | – | CC(C)CCC[C@H]1C(=O)O[C@@H]2O[C@@]3(C)CC[C@H]4[C@H](C)CC[C@@H]1[C@@]24OO3 | 9
200 | 200 | O=P(O)(O)C(Nc1ccccn1)P(=O)(O)O | –
– | – | C[C@@H]1CC[C@H]2[C@@H](CCCc3ccc(Cl)cc3)C(=O)O[C@@H]3O[C@@]4(C)CC[C@@H]1[C@]32OO4 | 12
200 | 200 | O=P(O)(O)C(O)(C1CCCCC1)P(=O)(O)O [CYCLOHEXYL(HYDROXY)METHYLENEDIPHOSPHONIC ACID] | –
– | – | C[C@@H]1CC[C@H]2[C@@H](CCCc3ccc(Cl)c(Cl)c3)CO[C@@H]3O[C@@]4(C)CC[C@@H]1[C@]32OO4 | 2
– | – | C[C@@H]1CC[C@H]2[C@@H](CCCc3cc(F)cc(F)c3)C(=O)O[C@@H]3O[C@@]4(C)CC[C@@H]1[C@]32OO4 | 50
200 | 200 | NCCC(O)(P(=O)(O)O)P(=O)(O)O [PAMIDRONIC ACID] | –
200 | 200 | O=P(O)(O)C(N1CCCCCC1)P(=O)(O)O [N-(HEXAMETHYLENEIMINO)METHYLENEBISPHOSPHONIC ACID] | –
– | – | C[C@@H]1CC[C@H]2[C@@H](CCCc3ccc(Cl)cc3)CO[C@@H]3O[C@@]4(C)CC[C@@H]1[C@]32OO4 | 5
200 | 200 | O=P(O)(O)CC(c1ccncc1)P(=O)(O)O (stereo not drawn) | –
200 | 200 | O=P(O)(O)C(O)(Cc1c[nH]cn1)P(=O)(O)O | –
200 | 200 | Nc1ccc(CC(O)(P(=O)(O)O)P(=O)(O)O)cc1 | –
200 | 200 | O=P(O)(O)C(N(C1CCCCC1)C1CCCCC1)P(=O)(O)O [(DICYCLOHEXYLAMINO)METHYLENEDIPHOSPHONIC ACID] | –
103 | 36 | CCCCCCc1ccc(NC(P(=O)(O)O)P(=O)(O)O)cc1 | –
200 | 200 | CCOP(=O)(OCC)C(Nc1ncccc1C)P(=O)(OCC)OCC | –
200 | 44 | O=P(O)(O)C(Nc1ccc(Br)cn1)P(=O)(O)O | –
200 | 200 | O=P(O)(O)C(O)(Cc1ccncc1)P(=O)(O)O | –
23 | 45 | CN(CCCc1ccccc1)CCCC(O)(P(=O)(O)O)P(=O)(O)O | –
200 | 200 | O=P(O)(O)CC(c1ccccn1)P(=O)(O)O (stereo not drawn) | –
200 | 200 | CCCCCCCCCCCCCCCCCC(O)(P(=O)(O)O)P(=O)(O)O | –
200 | 200 | O=P(O)(O)C(Nc1cccnc1Cl)P(=O)(O)O | –
200 | 200 | NCCCCC(O)(P(=O)(O)O)P(=O)(O)O | –
8 | 200 | O=P(O)(O)C(O)(Cc1ccccc1)P(=O)(O)O | –
200 | 200 | CCc1cccc(NC(P(=O)(O)O)P(=O)(O)O)c1 | –

Structure (SMILES) | IC50 [2] [µM] | IC50 [3] [µM] | IC50 [1] [µM]
O=P(O)(O)C(NC1CCC1)P(=O)(O)O [(CYCLOBUTYLAMINO)METHYLENEDIPHOSPHONIC ACID] | 200 | 200 | –
CCCCNC(P(=O)(O)O)P(=O)(O)O [(BUTYLAMINO)METHYLENEDIPHOSPHONIC ACID] | 200 | 200 | –
